These are literature values, as cited in patent US8680293B2, “Substituted CC-1065 analogs and their conjugates” (Syntarga B.V., priority 2007, dated 2014).

The conditions of the data set: reason it could not be used in the clinic.

In the case of `COc1c(O)c2c(c3cc(C(=O)N4CCc5c4c(O)c(OC)c4[nH]c(C(=O)N6CC7CC78C6=CC(=O)c6[nH]cc(C)c68)cc54)[nH]c13)CCN2C(N)=O` (stereo not shown) [CC-1065], the hepatotoxicity entry was “serious delayed hepatotoxicity”.
